Test results as given in the supplement of paper PMC10331698.
± gives the standard deviation of the averaged measurements.

Tests used:
Assay in all cases: level (log10 ratio to DMSO vehicle control); higher = higher biomarker level / cell amount than vehicle control
Details in all cases: in DMSO
Octafluoroadipamide = compound: NC(=O)C(F)(F)C(F)(F)C(F)(F)C(F)(F)C(N)=O [Octafluoroadipamide]
Procedure: (§1)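 BioMAP Diversity Plus panel of 12 human primary cell co-culture systems (3C, 4H, LPS, SAg, BT, BF4T, BE3C, CASM3C, HDF3CGF, KF3CT, MyoF, Mphg). Compounds were added 1 h before stimulation and left for 24 h (MyoF 48 h; BT 72 h for soluble read-outs or 6 d for IgG). Biomarkers were read by ELISA, cytotoxicity by SRB, PBMC viability and proliferation by Alamar Blue. Each well value was divided by the mean of 8 DMSO control wells on the same plate and log10 transformed; duplicate blinded samples were tested at 4 concentrations.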

[1] = compound: O=S(=O)(O)CCC(F)(F)C(F)(F)C(F)(F)C(F)(F)C(F)(F)C(F)(F)F [6:2 Fluorotelomer sulfonic acid]
Procedure: as §1

[2] = compound: FC(F)(F)C(F)(F)C(F)(F)C(F)(F)C(F)(F)C(F)(F)CC1CO1 [3-(Perfluorohexyl)-1,2-epoxypropane]
Procedure: as §1

[3] = compound: FC(F)(F)C(F)(F)CNCC(F)(F)C(F)(F)F [Bis(1H,1H-perfluoropropyl)amine]
Procedure: as §1

[4] = compound: NC(=O)C(F)(F)C(F)(F)C(F)(F)C(F)F
Procedure: as §1

Test System | level (log10) (Octafluoroadipamide; 6700 nM) | level (log10) (Octafluoroadipamide; 20000 nM) | level (log10) (Octafluoroadipamide; 60000 nM) | level (log10) ([1]; 6700 nM) | level (log10) ([1]; 20000 nM) | level (log10) ([1]; 60000 nM) | level (log10) ([2]; 6700 nM) | level (log10) ([2]; 20000 nM) | level (log10) ([2]; 60000 nM) | level (log10) ([3]; 6700 nM) | level (log10) ([3]; 20000 nM) | level (log10) ([3]; 60000 nM) | level (log10) ([4]; 6700 nM) | level (log10) ([4]; 20000 nM) | level (log10) ([4]; 60000 nM)
LPS:CD62E/E-Selectin | -0.007 ± 0.02 | -0.0035 ± 0.016 | 0.022 ± 0.0028 | 0.034 ± 0.021 | 0.007 ± 0.014 | 0.027 ± 0.023 | -0.0055 ± 0.029 | 0 ± 0.0042 | 0.0165 ± 0.026 | 0.0005 ± 0.032 | -0.012 ± 0.0057 | 0.0125 ± 0.00071 | -0.0115 ± 0.022 | -0.023 ± 0.0014 | -0.016 ± 0.016
LPS:CD69 | 0.011 ± 0.1 | 0.033 ± 0.052 | 0.082 ± 0.024 | -0.0315 ± 0.037 | -0.033 ± 0.055 | -0.111 ± 0.057 | -0.024 ± 0.013 | -0.0225 ± 0.015 | -0.0195 ± 0.0078 | 0.016 ± 0.028 | 0.0075 ± 0.053 | 0.03 ± 0.09 | 0.006 ± 0.027 | 0.021 ± 0.035 | 0.0225 ± 0.061
LPS:CD142/Tissue Factor | -0.0225 ± 0.077 | -0.004 ± 0.025 | 0.057 ± 0.025 | -0.0015 ± 0.064 | 0.02 ± 0.0085 | 0.0275 ± 0.026 | -0.023 ± 0.0057 | -0.0095 ± 0.032 | 0.0015 ± 0.039 | 0.019 ± 0.073 | -0.007 ± 0.099 | 0.0095 ± 0.13 | -0.0215 ± 0.00071 | 0.005 ± 0.0028 | -0.007 ± 0.0014
LPS:CXCL8/IL-8 | -0.0035 ± 0.033 | 0.007 ± 0.0085 | 0.01 ± 0.013 | 0.045 ± 0.013 | 0.072 ± 0.064 | 0.192 ± 0.1 | -0.0205 ± 0.011 | -0.0135 ± 0.021 | 0.0015 ± 0.035 | -0.0185 ± 0.005 | -0.0325 ± 0.037 | 0.017 ± 0.099 | -0.0055 ± 0.0035 | -0.0025 ± 0.035 | 0.016 ± 0.12
LPS:IL-1alpha | 0.0005 ± 0.012 | 0.02 ± 0.017 | -0.0045 ± 0.00071 | 0.007 ± 0.011 | 0.0225 ± 0.023 | 0.037 ± 0.05 | 0.003 ± 0.018 | 0.012 ± 0.041 | 0.028 ± 0.027 | 0.0065 ± 0.04 | -0.017 ± 0.027 | -0.0125 ± 0.011 | 0.009 ± 0.011 | -0.0045 ± 0.015 | 0.0015 ± 0.06
MyoF:CXCL8/IL-8 | 0.007 ± 0.028 | -0.006 ± 0.011 | 0.0075 ± 0.016 | 0.007 ± 0.031 | 0 ± 0.018 | 0.016 ± 0.021 | -0.019 | -0.0205 ± 0.025 | -0.005 ± 0.031 | -0.024 ± 0.0028 | -0.003 ± 0.018 | 0.019 ± 0.033 | -0.0285 ± 0.0092 | -0.0185 ± 0.028 | 0.018 ± 0.054
MyoF:Collagen I | -0.0015 ± 0.015 | 0.009 ± 0.0071 | 0.0135 ± 0.0021 | 0.011 ± 0.025 | -0.022 ± 0.016 | 0 ± 0.0085 | -0.011 ± 0.018 | -0.003 ± 0.0028 | 0.007 ± 0.02 | -0.005 ± 0.0057 | -0.014 ± 0.0099 | 0.0035 ± 0.015 | -0.0115 ± 0.015 | -0.002 ± 0.02 | 0.006 ± 0.017
MyoF:Collagen III | 0.0035 ± 0.011 | 0.009 ± 0.0057 | -0.0075 ± 0.025 | -0.011 ± 0.013 | -0.02 ± 0.017 | -0.0055 ± 0.015 | 0.007 ± 0.0028 | 0.003 ± 0.011 | 0.0065 ± 0.011 | 0.003 ± 0.016 | 0.0025 ± 0.005 | -0.0035 ± 0.0092 | 0.003 | 0.0135 ± 0.00071 | -0.0065 ± 0.035
MyoF:Collagen IV | -0.0165 ± 0.015 | -0.0065 ± 0.0064 | 0.003 ± 0.038 | -0.0185 ± 0.033 | -0.006 ± 0.023 | -0.002 ± 0.014 | 0.002 ± 0.025 | 0.0185 ± 0.0021 | 0.0425 ± 0.053 | -0.014 ± 0.03 | -0.0275 ± 0.015 | -0.008 ± 0.03 | -0.0075 ± 0.0035 | -0.007 ± 0.028 | 0.014 ± 0.038
MyoF:Decorin | 0.0105 ± 0.035 | -0.0025 ± 0.0092 | 0.017 ± 0.028 | 0.0105 ± 0.0035 | 0.0015 ± 0.00071 | 0.0435 ± 0.0021 | 0.001 ± 0.03 | 0.003 | 0.0265 ± 0.035 | -0.005 ± 0.0071 | -0.0065 ± 0.021 | 0.015 ± 0.034 | 0.012 ± 0.0085 | -0.0035 ± 0.03 | -0.009 ± 0.0085
MyoF:PAI-I | -0.008 ± 0.027 | 0.0045 ± 0.0035 | 0.009 ± 0.0042 | -0.0035 ± 0.0021 | -0.011 ± 0.0014 | -0.0035 ± 0.015 | 0.011 ± 0.0099 | -0.0035 ± 0.00071 | 0.0055 ± 0.0021 | -0.005 ± 0.011 | 0.007 ± 0.013 | 0.011 ± 0.0014 | -0.0125 ± 0.013 | -0.0125 ± 0.0064 | 0.005 ± 0.018
